Activity calls are given as the source filed them. The calls are words filed in the database; no cut-off is given here.
Experiments:
Nucleic Acid [1] = assay: Binding affinity to poly A-poly U RNA in citric acid buffer at pH 5 by UV-v titration assay; type: nucleic-acid assay
Caco-2 [2] = assay: Cytotoxicity against human Caco-2 cells at 100 uM after 72 hrs by MTT assay; type: functional, cell-based
Nucleic Acid [3] = assay: Binding affinity to poly A-poly U RNA assessed as melting temperature at compound to DNA molar ratio of 0.3 at pH 7 by thermal denaturation assay; type: nucleic-acid assay
Calf thymus DNA [4] = assay: Binding affinity to calf thymus DNA assessed as change in melting temperature at compound to DNA molar ratio of 0.2 at pH 7 by thermal denaturation assay; type: nucleic-acid assay; details: Bos taurus
Nucleic Acid [5] = assay: Binding affinity to AMP in sodium cacodylate buffer at pH 7 by fluorescence titration assay relative to control; type: nucleic-acid assay
Nucleic Acid [6] = assay: Binding affinity to CMP in sodium cacodylate buffer at pH 7 by fluorescence titration assay relative to control; type: nucleic-acid assay
Nucleic Acid [7] = assay: Binding affinity to […] assessed as melting temperature at compound to DNA molar ratio of 0.2 at pH 5 by thermal denaturation assay; type: nucleic-acid assay
Nucleic Acid [8] = assay: Binding affinity to poly dA-poly dT RNA in sodium cacodylate buffer at pH 7 by fluorescence titration assay; type: nucleic-acid assay
HeLa [9] = assay: Drug uptake in human HeLa cells at 1 mM after 10 mins using DAPI staining by fluorescence microscopy analysis; type: ADME, cell-based; details: 1000 µM
Caco-2 [10] = assay: Cytotoxicity against human Caco-2 cells at 10 to 100 uM after 72 hrs by MTT assay; type: functional, cell-based
Nucleic Acid [11] = assay: Binding affinity to […] assessed as change in melting temperature at compound to DNA molar ratio of 0.3 at pH 7 by thermal denaturation assay; type: nucleic-acid assay
HEp-2 = assay: Cytotoxicity against human Hep2 cells at 10 to 100 uM after 72 hrs by MTT assay; type: functional, cell-based
Nucleic Acid [12] = assay: Binding affinity to […] assessed as change in melting temperature at compound to DNA molar ratio of 0.3 at pH 5 by thermal denaturation assay; type: nucleic-acid assay
Nucleic Acid [13] = assay: Binding affinity to poly G-poly C RNA in citric acid buffer at pH 5 by UV-v titration assay; type: nucleic-acid assay
MIA PaCa-2 [14] = assay: Cytotoxicity against human MIAPaCa2 cells at 10 to 100 uM after 72 hrs by MTT assay; type: functional, cell-based
Nucleic Acid [15] = assay: Binding affinity to poly A-poly U RNA assessed as change in melting temperature at compound to DNA molar ratio of 0.2 at pH 7 by thermal denaturation assay; type: nucleic-acid assay
Nucleic Acid [16] = assay: Binding affinity to poly dA-poly dT RNA in citric acid buffer at pH 5 by fluorescence titration assay relative to control; type: nucleic-acid assay
Calf thymus DNA [17] = assay: Binding affinity to calf thymus DNA in citric acid buffer at pH 5 by UV-v titration assay; type: nucleic-acid assay; details: Bos taurus
HeLa [18] = assay: Cytotoxicity against human HeLa cells at 0.1 to 100 uM after 72 hrs by MTT assay; type: functional, cell-based
Nucleic Acid [19] = assay: Binding affinity to poly A-poly U RNA at compound to DNA molar ratio of 0.1 to 0.4 at pH 5 by circular dichroism; type: nucleic-acid assay
[20] = Solubility of the compound in water; type: physicochemical; details: buffer
Nucleic Acid [21] = assay: Binding affinity to UMP in sodium cacodylate buffer at pH 7 by fluorescence titration assay relative to control; type: nucleic-acid assay
Nucleic Acid [22] = assay: Binding affinity to poly G-poly C RNA in citric acid buffer at pH 5 by fluorescence titration assay relative to control; type: nucleic-acid assay
HT-29 = assay: Cytotoxicity against human HT-29 cells at 10 to 100 uM after 72 hrs by MTT assay; type: functional, cell-based
MIA PaCa-2 [23] = assay: Drug uptake in human MIAPaCa2 cells at 1 mM after 10 mins using DAPI staining by fluorescence microscopy analysis; type: ADME, cell-based; details: mia paca-2, 10 min, 1000 µM
Caco-2 [24] = assay: Cytotoxicity against human Caco-2 cells at 0.1 to 100 uM after 72 hrs by MTT assay; type: functional, cell-based
HeLa [25] = assay: Cytotoxicity against human HeLa cells at 10 to 100 uM after 72 hrs by MTT assay; type: functional, cell-based
Nucleic Acid [26] = assay: Binding affinity to poly A-poly U RNA assessed as biphasic transitions of change in melting temperature at compound to DNA molar ratio of 0.3 at pH 5 by thermal denaturation assay; type: nucleic-acid assay
Nucleic Acid [27] = assay: Binding affinity to poly A-poly U RNA assessed as melting temperature at compound to DNA molar ratio of 0.3 at pH 5 by thermal denaturation assay; type: nucleic-acid assay
Nucleic Acid [28] = assay: Binding affinity to poly A-poly U RNA in sodium cacodylate buffer at pH 7 by UV-v titration assay; type: nucleic-acid assay
Nucleic Acid [29] = assay: Binding affinity to poly G-poly C RNA in sodium cacodylate buffer at pH 7 by UV-v titration assay; type: nucleic-acid assay
Nucleic Acid [30] = assay: Binding affinity to poly A-poly U RNA assessed as change in melting temperature at compound to DNA molar ratio of 0.3 at pH 5 by thermal denaturation assay; type: nucleic-acid assay
Calf thymus DNA [31] = assay: Binding affinity to calf thymus DNA at compound to DNA molar ratio of 0.1 to 0.5 at pH 7 by circular dichroism; type: nucleic-acid assay; details: Bos taurus
Nucleic Acid [32] = assay: Binding affinity to poly A-poly U RNA assessed as biphasic transitions of melting temperature at compound to DNA molar ratio of 0.3 at pH 5 by thermal denaturation assay; type: nucleic-acid assay
Nucleic Acid [33] = assay: Binding affinity to […] in citric acid buffer at pH 5 by UV-v titration assay; type: nucleic-acid assay

Compound | log Ks (Nucleic Acid [1]) | Activity (Caco-2 [2]) | Tm (Nucleic Acid [3]) | ΔTm (Calf thymus DNA [4]) | RFU (Nucleic Acid [5]) | RFU (Nucleic Acid [6]) | Tm (Nucleic Acid [7]) | log Ks (Nucleic Acid [8]) | ΔTm (Nucleic Acid [11]) | ΔTm (Nucleic Acid [12]) | ΔTm (Nucleic Acid [15]) | RFU (Nucleic Acid [16]) | log Ks (Calf thymus DNA [17]) | Activity (HeLa [18]) | Activity (Nucleic Acid [19]) | solubility [20] | RFU (Nucleic Acid [21]) | RFU (Nucleic Acid [22]) | Activity (Caco-2 [24]) | ΔTm (Nucleic Acid [26]) | further results
Cc1c2cc(NC(=O)NCCCCCCNC(=O)Nc3ccc4c(c3)c(C)[n+](C)c3ccccc43)ccc2c2ccccc2[n+]1C.O=S(=O)([O-])O.O=S(=O)([O-])O | 4.5 | Active | 51.5 °C | 3.9 °C | -47.8 | 3.5 | 59.7 °C | 5.3 | 6.4 °C | 10.4 °C | 0 °C | 24 | 5.4 | Active | Active | 1.24 mM | 3.5 | 0 | Active |  | Drug uptake (HeLa [9]): Active; Activity (Caco-2 [10]): inactive; Activity (HEp-2): inactive; log Ks (Nucleic Acid [13]): 5.1; Activity (MIA PaCa-2 [14]): inactive; Activity (HT-29): inactive; Drug uptake (MIA PaCa-2 [23]): Active; Activity (HeLa [25]): inactive
Cc1c2cc(NC(=O)NCCCCCCCCCNC(=O)Nc3ccc4c(c3)c(C)[n+](C)c3ccccc43)ccc2c2ccccc2[n+]1C.O=S(=O)([O-])O.O=S(=O)([O-])O | 5.4 | inactive | 53.6 °C | 4.9 °C | -55 | -9.4 | 57.5 °C | 5.6 | 5.5 °C | 7.7 °C | 2.3 °C | 2.3 |  | inactive |  | 1.06 mM | 1.02 | 0 | inactive | -1.6 °C | Tm (Nucleic Acid [27]): 82.6 °C; log Ks (Nucleic Acid [28]): 5.1; log Ks (Nucleic Acid [29]): 5.8; ΔTm (Nucleic Acid [30]): 1.9 °C; Activity (Calf thymus DNA [31]): Active; Tm (Nucleic Acid [32]): 31.1 °C
Cc1c2cc(NC(=O)NCCNC(=O)Nc3ccc4c(c3)c(C)[n+](C)c3ccccc43)ccc2c2ccccc2[n+]1C.O=S(=O)([O-])O.O=S(=O)([O-])O |  | inactive | 51.6 °C | 2.4 °C | -45.2 | 47.7 | 59.4 °C | 5.3 | 6.1 °C | 10.7 °C | 0 °C | 56 | 6 | Active | Active | 1.46 mM | 62.5 | 0 | Active | -0.4 °C | Tm (Nucleic Acid [27]): 83.8 °C; log Ks (Nucleic Acid [33]): 5.2; log Ks (Nucleic Acid [29]): 5.2; ΔTm (Nucleic Acid [30]): 1.9 °C; Tm (Nucleic Acid [32]): 31.1 °C

Source: ChEMBL document CHEMBL1208667, “Permanent positive charge strongly influences DNA/RNA binding and antiproliferative activity of urea-phenanthridinium conjugates” (Eur J Med Chem, 2010)
